{
  "source": "patent US5744492A",
  "about": "“Method for inhibiting angiogenesis” (United States of America, priority 1994, dated 1998)",
  "key": {"[1]": {"tested_on": "chick chorioallantoic membrane", "assay": "Chick chorioallantoic membrane (CAM) angiogenesis assay", "format": "in vivo", "method": "The chick chorioallantoic or yolk sac membrane (CAM) assays for angiogenesis are important in vivo models of microvessel formation. […] Briefly, fertilized chick embryos with the yolk intact were removed from their shells on day 3 of development and incubated at 37° C."}, "[2]": {"tested_on": "MMP-2", "assay": "Northern blot analysis of MMP-2 expression in HUVECs", "format": "cell-based, human", "conditions": "bFGF 10 ng/mL alone, 24 hr", "method": "(§1) Human umbilical vein endothelial cells (H 930) were generously supplied by Dr. Tom Maciag, American Red Cross (Gaithersburg, Md., USA) and were used between passages 9 and 14 to avoid senescence. HUVECs were grown on fibronectin-coated tissue culture plastic (200 μg/150 mm dish) in complete medium (Medium 199 (M-199) containing 5 U/mL preservative-free heparin, 25.5 μg/mL ECGS, 10% fetal bovine serum and 100 U/mL penicillin, 100 μg/mL streptomycin, and 0.25 μg/mL fungizone).\n(§2) HUVECs were grown to confluence as described. Fresh complete medium with test compounds was added to confluent cells for an additional 24 hr incubation. bFGF (10 ng/mL), and/or compound 1 (10 μM) or DMSO control (0.1%) were added as indicated below. Total RNA was isolated by the guanidine isothiocyanate/CsCl method. Aliquots of RNA (7.5 μg) were separated on 1% agarose/formaldehyde gels, passively transferred to GeneScreen Plus membrane in 20X SSC, then cross-linked with ultraviolet light. Blots were prewashed for 1 hr at 42° C. in 1M NaCl, 10 mM Tris, 1 mM EDTA, 0.1% SDS and then hybridized overnight at 42° C. with a formamide-containing buffer (hybridization buffer final: 50% formamide, 4X SSC, 10 mM Tris pH 7.5, IX Denhardt solution, 0.2% SDS, 125 μg/ml salmon sperm DNA) with a random-primed 300 bp insert for MMP-2 (gift of Dr. William Stetler-Stevenson, Laboratory of Pathology, NCI). Blots were washed under stringent conditions then exposed to film. After removal of MMP-2 probe, blots were rehybridized with β-actin probe for quantitation of the RNA load. Results were quantitated by densitometric evaluation of the autoradiographs.\n(§3) Lane 1 corresponds to the mRNA from HUVECs treated with DMSO (control). Lanes 2-4 show the mRNA isolated from HUVECs treated with compound 1 (10 μM) alone, compound 1 (10 μM) and bFGF (10 ng/mL), bFGF (10 ng/mL) alone, respectively."}, "[3]": {"tested_on": "β-actin", "assay": "Northern blot, β-actin probe for quantitation of RNA load in HUVECs", "format": "cell-based, human", "conditions": "bFGF 10 ng/mL alone, 24 hr", "method": "as §1, §2, §3"}, "[4]": {"conditions": "positive control, 60μ (text: 60 μg)"}},
  "data": [
    {"compound": "NC(=O)c1nc[nH]c1N", "note": "[AIC, aminoimidazole carboxamide, reference compound]", "values": [
      {"measurement": "% Inhibition (capillary formation in vivo)", "setting": "[1]; 10 μM, 48 hr", "result": 16, "unit": "%"},
      {"measurement": "Eggs with avascular zones/total", "setting": "[1]; 10 μM, 48 hr", "result": "4/24"},
      {"measurement": "angiogenesis inhibitory effect (in words)", "setting": "[1]; 10 or 20 μM, 48 hr", "result": "inactive"}
    ]},
    {"compound": "C[C@]12CCC(=O)C=C1CC[C@@H]1[C@@H]2[C@@H](O)C[C@@]2(C)[C@H]1CC[C@]2(O)C(=O)CO", "note": "[Hydrocortisone, hydrocortisone, reference compound]", "values": [
      {"measurement": "% Inhibition (capillary formation in vivo)", "setting": "[1]; [4]", "result": 55, "unit": "%"},
      {"measurement": "Eggs with avascular zones/total", "setting": "[1]; [4]", "result": "10/18"}
    ]},
    {"compound": "bFGF: Recombinant basic fibroblast growth factor (bFGF)", "values": [
      {"measurement": "Corrected values (MMP-2 mRNA corrected for loading)", "setting": "[2]", "result": 0.37},
      {"measurement": "MMP-2 (densitometer)", "setting": "[2]", "result": 77, "unit": "Densitometer units"},
      {"measurement": "β-actin (densitometer)", "setting": "[3]", "result": 205, "unit": "Densitometer units"}
    ]}
  ]
}
